Measurements published in ChEMBL document CHEMBL1155239, “Structure-guided development of selective TbcatB inhibitors” (J Med Chem, 2009).

What was measured:
HEK293 = experiment: Cytotoxicity against human HEK293 cells after 72 hrs by alamar blue assay; type: ADME, cell-based; details: HEK293, 72 h
[1] = Inhibition of Trypanosoma brucei cathepsin B expressed in Pichia pastoris
BJ = experiment: Cytotoxicity against human BJ cells after 72 hrs by alamar blue assay; type: ADME, cell-based
Rhodesain = Rhodesain (Trypanosoma brucei rhodesiense, UniProt Q95PM0); experiment: Inhibition of Trypanosoma brucei rhodesiense rhodesain
Sequence of Rhodesain (Q95PM0 whole entry): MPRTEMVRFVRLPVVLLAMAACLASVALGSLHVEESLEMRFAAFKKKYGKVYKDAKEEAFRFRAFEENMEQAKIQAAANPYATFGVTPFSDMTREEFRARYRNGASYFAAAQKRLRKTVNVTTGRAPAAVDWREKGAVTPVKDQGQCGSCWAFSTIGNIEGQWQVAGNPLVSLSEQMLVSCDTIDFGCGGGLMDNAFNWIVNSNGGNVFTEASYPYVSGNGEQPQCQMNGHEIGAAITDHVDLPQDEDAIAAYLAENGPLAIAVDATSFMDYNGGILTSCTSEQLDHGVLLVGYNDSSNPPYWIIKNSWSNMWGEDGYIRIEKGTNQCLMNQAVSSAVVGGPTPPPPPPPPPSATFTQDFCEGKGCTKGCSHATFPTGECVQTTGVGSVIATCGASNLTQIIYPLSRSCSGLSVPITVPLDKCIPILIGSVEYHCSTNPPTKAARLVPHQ

Procathepsin L = Procathepsin L (Homo sapiens, UniProt P07711); experiment: Inhibition of human liver cathepsin L
Sequence of Procathepsin L (P07711 whole entry): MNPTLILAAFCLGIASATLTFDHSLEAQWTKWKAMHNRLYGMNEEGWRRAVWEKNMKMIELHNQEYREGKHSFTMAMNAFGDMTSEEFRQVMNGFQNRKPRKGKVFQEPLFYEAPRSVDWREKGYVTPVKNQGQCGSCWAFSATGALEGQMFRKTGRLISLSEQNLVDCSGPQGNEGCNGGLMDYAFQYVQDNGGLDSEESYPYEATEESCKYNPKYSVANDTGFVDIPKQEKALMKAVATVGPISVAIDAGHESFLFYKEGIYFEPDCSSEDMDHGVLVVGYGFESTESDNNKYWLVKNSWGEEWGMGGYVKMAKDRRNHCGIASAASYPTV

Raji = experiment: Cytotoxicity against human Raji cells after 72 hrs by alamar blue assay; type: ADME, cell-based
HepG2 = experiment: Cytotoxicity against human HepG2 cells after 72 hrs by alamar blue assay; type: ADME, cell-based; details: HepG2, 72 h
Trypanosoma brucei = experiment: Antitrypanosomal activity against Trypanosoma brucei after 48 hrs; type: functional, organism-based
Cathepsin B = Cathepsin B (Homo sapiens, UniProt P07858); experiment: Inhibition of human liver cathepsin B

SMILES | EC50 (HEK293) [nM] | IC50 [1] [nM] | EC50 (BJ) [nM] | IC50 (Rhodesain) [nM] | IC50 (Procathepsin L) [nM] | EC50 (Raji) [nM] | EC50 (HepG2) [nM] | EC50 (Trypanosoma brucei) [nM] | IC50 (Cathepsin B) [nM]
N#Cc1nc(NCc2cccc(-c3cc(Cl)cc(Cl)c3)c2)c2ncn(CCCO)c2n1 | > 10000 | 1200 | > 10000 | 1100 | 900 | > 10000 | > 10000 | 3300 | –
N#Cc1nc(NCc2cccc(-c3ccc(Cl)c(Cl)c3)c2)c2ncn(CCCO)c2n1 | > 10000 | 1200 | > 10000 | 900 | 1600 | > 10000 | > 10000 | 2300 | –
CN(C)c1cccc(-c2cccc(CNc3nc(C#N)nc4c3ncn4CCCO)c2)c1 | > 10000 | 1200 | > 10000 | 900 | 1400 | > 10000 | > 10000 | – | –
COC(=O)c1cccc(-c2cccc(CNc3nc(C#N)nc4c3ncn4CCCO)c2)c1 | > 10000 | – | > 10000 | 500 | – | > 10000 | > 10000 | 2700 | –
C=Cc1cccc(-c2cccc(CNc3nc(C#N)nc4c3ncn4CCCO)c2)c1 | > 10000 | 800 | > 10000 | – | – | > 10000 | > 10000 | – | –
C=Cc1ccc(-c2cccc(CNc3nc(C#N)nc4c3ncn4CCCO)c2)cc1 | > 10000 | 900 | > 10000 | 1800 | 1100 | > 10000 | > 10000 | – | –
N#Cc1nc(NCc2cccc(-c3ccc4ccccc4c3)c2)c2ncn(CCCO)c2n1 | > 10000 | 230 | > 10000 | 700 | 800 | > 10000 | > 10000 | 1100 | –
N#Cc1nc(NCc2cccc(-c3ccco3)c2)c2ncn(CCCO)c2n1 | > 10000 | 1000 | > 10000 | 310 | 840 | > 10000 | > 10000 | 1600 | –
N#Cc1nc(NCc2cccc(-c3ccsc3)c2)c2ncn(CCCO)c2n1 | > 10000 | 370 | > 10000 | 240 | 480 | > 10000 | > 10000 | 430 | –
N#Cc1nc(NCc2cccc(-c3ccoc3)c2)c2ncn(CCCO)c2n1 | > 10000 | 460 | > 10000 | 30 | 600 | > 10000 | > 10000 | 560 | –
CC(C)Oc1c(Br)cccc1-c1cccc(CNc2nc(C#N)nc3c2ncn3CCCO)c1 | > 10000 | 900 | > 10000 | 1500 | 1300 | > 10000 | > 10000 | – | > 50000
Cc1ccccc1-c1cccc(CNc2nc(C#N)nc3c2ncn3CCCO)c1 | – | 390 | – | > 50000 | 1100 | – | – | – | –
N#Cc1nc(NCc2cccc(-c3ccc(Cl)cc3)c2)c2ncn(CCCO)c2n1 | – | – | – | 1400 | 1900 | – | – | – | –
COc1ccc(-c2cccc(CNc3nc(C#N)nc4c3ncn4CCCO)c2)cc1 | > 10000 | 1200 | > 10000 | 800 | 1100 | > 10000 | > 10000 | – | –
N#Cc1nc(NCc2cccc(-c3ccccc3)c2)c2ncn(CCCO)c2n1 | > 10000 | 1800 | > 10000 | 700 | 800 | > 10000 | > 10000 | 1400 | –
N#Cc1nc(NCc2cccc(-c3cccnc3)c2)c2ncn(CCCO)c2n1 | > 10000 | 600 | > 10000 | 260 | 1600 | > 10000 | > 10000 | 1400 | –

SMILES | EC50 (HEK293) [nM] | IC50 [1] [nM] | EC50 (BJ) [nM] | IC50 (Rhodesain) [nM] | IC50 (Procathepsin L) [nM] | EC50 (Raji) [nM] | EC50 (HepG2) [nM] | EC50 (Trypanosoma brucei) [nM] | IC50 (Cathepsin B) [nM]
N#Cc1nc(NCc2cccc(-c3cccs3)c2)c2ncn(CCCO)c2n1 | > 10000 | 600 | > 10000 | 800 | 900 | > 10000 | > 10000 | – | –
N#Cc1nc(NCc2cccc(-c3ccccc3Cl)c2)c2ncn(CCCO)c2n1 | – | 1300 | – | 20000 | 16000 | – | – | – | –
N#Cc1nc(NCc2cccc(-c3cccc(Cl)c3)c2)c2ncn(CCCO)c2n1 | > 10000 | 800 | > 10000 | 1200 | 700 | > 10000 | > 10000 | 3700 | –
N#Cc1nc(NCc2cccc(-c3c(F)c(F)c(F)c(F)c3F)c2)c2ncn(CCCO)c2n1 | > 10000 | 900 | > 10000 | 5200 | 2700 | > 10000 | > 10000 | – | –
N#Cc1nc(NCc2cccc(-c3ccc4[nH]ccc4c3)c2)c2ncn(CCCO)c2n1 | > 10000 | 250 | > 10000 | 500 | 190 | > 10000 | > 10000 | 380 | –
CC(C)c1ccccc1-c1cccc(CNc2nc(C#N)nc3c2ncn3CCCO)c1 | – | 310 | – | – | 900 | – | – | 630 | –
CC(=O)Nc1cccc(-c2cccc(CNc3nc(C#N)nc4c3ncn4CCCO)c2)c1 | > 10000 | 1600 | > 10000 | – | – | > 10000 | > 10000 | 4100 | –
COc1ncc(-c2cccc(CNc3nc(C#N)nc4c3ncn4CCCO)c2)c(OC)n1 | > 10000 | 2900 | > 10000 | 4000 | 6000 | > 10000 | > 10000 | 5900 | > 15000
COC(=O)c1ccccc1-c1cccc(CNc2nc(C#N)nc3c2ncn3CCCO)c1 | – | 1000 | – | > 10000 | 1400 | – | – | 700 | > 15000
N#Cc1nc(NCc2cccc(-c3ccccc3C(F)(F)F)c2)c2ncn(CCCO)c2n1 | > 10000 | 280 | > 10000 | 8000 | 1500 | > 10000 | > 10000 | – | –
COC(=O)c1ccc(-c2cccc(CNc3nc(C#N)nc4c3ncn4CCCO)c2)cc1 | > 10000 | 1600 | > 10000 | 1200 | 1800 | > 10000 | > 10000 | 4000 | –
N#Cc1nc(NCc2cccc(-c3cc4ccccc4n3S(=O)(=O)c3ccccc3)c2)c2ncn(CCCO)c2n1 | > 10000 | > 15000 | > 10000 | 9000 | 1800 | > 10000 | > 10000 | – | > 50000
Cc1cccc(C)c1-c1cccc(CNc2nc(C#N)nc3c2ncn3CCCO)c1 | – | 270 | – | > 15000 | 1000 | – | – | – | –
N#Cc1nc(NCc2cccc(-c3cn(S(=O)(=O)c4ccccc4)c4ccccc34)c2)c2ncn(CCCO)c2n1 | > 10000 | > 15000 | > 10000 | 2000 | 1000 | > 10000 | > 10000 | 2000 | > 50000
N#Cc1nc(NCc2cccc(-c3ccc4cc[nH]c4c3)c2)c2ncn(CCCO)c2n1 | > 10000 | 240 | > 10000 | 260 | 460 | > 10000 | > 10000 | 800 | –
